Results on 43 compounds are retold here after ChEMBL document CHEMBL5046233, “Nitroxoline and its derivatives are potent inhibitors of metallo-β-lactamases” (Eur J Med Chem, 2022).

Structures are written as SMILES. Some results are limits rather than exact numbers.

Common to all, as to details: Bacteria
The nature of assay [1]: Inhibition of recombinant NDM-1 (unknown origin) using fluorocillin as substrate at 30 uM incubated for 30 mins by fluorescence based assay.
Assay [2] is described as follows: Inhibition of recombinant NDM-1 (unknown origin) using fluorocillin as substrate at 3 uM incubated for 30 mins by fluorescence based assay.
Assay [3] in a line: Inhibition of recombinant NDM-1 (unknown origin) using fluorocillin as substrate at 10 uM incubated for 30 mins by fluorescence based assay.

The inhibition is the relative decrease from the control value, in per cent.

Consider `c1cnc2c(c1)ccc1cccnc12`, for which the inhibition in assay [1] was 68%; in assay [2], below 20%; in assay [3], below 20%.

With `CN(C)Cc1ccc2c([N+](=O)[O-])ccc(O)c2n1`, the inhibition in assay [1], in assay [2] and in assay [3] was below 20% throughout.

For `Nc1ccc2cccc(O)c2n1`, the inhibition in assay [1], in assay [2] and in assay [3] was below 20% in each case.

On to `O=C(O)c1ccc(O)c2ncccc12`, for which the values for the inhibition in assay [1], in assay [2] and in assay [3] were 39%, below 20% and below 20%, respectively.

`N#CCN(Cc1ccccc1)C(=O)c1ccc2c([N+](=O)[O-])cc([N+](=O)[O-])c(O)c2n1`: the inhibition in assay [1], in assay [2] and in assay [3] was below 20% each time.

Consider `O=C(O)c1ccc([N+](=O)[O-])c2cccnc12`, for which the inhibition in assay [1], in assay [2] and in assay [3] was below 20% each time.

With `O=C(O)c1cc([N+](=O)[O-])c2cccnc2c1O`, the inhibition in assay [1], in assay [2] and in assay [3] was below 20% in each case.

`O=[N+]([O-])c1ccc(N2CCCC2)c2ncccc12`: the inhibition in assay [1], in assay [2] and in assay [3] was below 20% each time.

Turning to `O=[N+]([O-])c1cc(O)c2ncccc2c1`, the inhibition in assay [1] is 95%; in assay [2] it was below 20%; in assay [3], below 20%.

Regarding `N#Cc1ccc2cccc(O)c2n1`, the inhibition in assay [1], in assay [2] and in assay [3] was below 20% in each case.

For `O=C(O)COc1cccc2cccnc12`, the inhibition in assay [1], in assay [2] and in assay [3] was below 20% each time.

`O=[N+]([O-])c1cc(CNCc2ccccc2)c(O)c2ncccc12`: the inhibition is 76% in assay [1], below 20% in assay [2] and 23% in assay [3].

As to `Cc1ccc2c([N+](=O)[O-])cc([N+](=O)[O-])c(O)c2n1`, the inhibition in assay [1], in assay [2] and in assay [3] was below 20% each time.

`O=[N+]([O-])c1cc([N+](=O)[O-])c2cccnc2c1O`: the inhibition in assay [1], in assay [2] and in assay [3] was below 20% each time.

Turning to `NC(=O)c1ccc([N+](=O)[O-])c2cccnc12`, the inhibition in assay [1], in assay [2] and in assay [3] was below 20% in each case.

`O=C(O)CN(CCN(CC(=O)O)CC(=O)O)CC(=O)O`: the results for the inhibition in assay [1], in assay [2] and in assay [3] were 87%, 84% and 87%, respectively.

As for `O=C(O)C[C@H](NCCN[C@@H](CC(=O)O)C(=O)O)C(=O)O`, the inhibition in assay [1] came to 86%; in assay [2], 84%; in assay [3], 84%.

On to `O=C(O)c1cc(O)c2ncccc2c1`, for which the inhibition in assay [1], in assay [2] and in assay [3] was below 20% in each case.

For `N#CCN(Cc1ccccc1)C(=O)c1ccc2c([N+](=O)[O-])ccc(O)c2n1`, the inhibition in assay [1], in assay [2] and in assay [3] was below 20% each time.

Consider `N#CCOc1ccc([N+](=O)[O-])c2cccnc12`, for which the inhibition in assay [1], in assay [2] and in assay [3] was below 20% in each case.

For the compound `Nc1c([N+](=O)[O-])cc([N+](=O)[O-])c2cccnc12`, the inhibition in assay [1], in assay [2] and in assay [3] was below 20% in each case.

With `O=C(c1cc([N+](=O)[O-])c2cccnc2c1O)N1CCOCC1`, the inhibition in assay [1] is 16%; in assay [2], below 20%; in assay [3] it was below 20%.

As for `Nc1c(O)cc(S(=O)(=O)O)c2ccccc12`, the inhibition in assay [1], in assay [2] and in assay [3] was below 20% throughout.

As for `Cc1ccc2c([N+](=O)[O-])ccc(O)c2n1`, the inhibition is 35% in assay [1], below 20% in assay [2] and below 20% in assay [3].

On to `O=S(=O)(O)c1ccc(O)c2ncccc12`, for which the inhibition in assay [1] was 67%; in assay [2] it was below 20%; in assay [3], below 20%.

For `N#Cc1ccc2c([N+](=O)[O-])cc([N+](=O)[O-])c(O)c2n1`, the inhibition in assay [1], in assay [2] and in assay [3] was below 20% each time.

As for `O=[N+]([O-])c1ccc(O)c2ccccc12`, the inhibition in assay [1], in assay [2] and in assay [3] was below 20% each time.

As for `CN(CC#N)C(=O)c1ccc2cccc(O)c2n1`, the inhibition in assay [1], in assay [2] and in assay [3] was below 20% each time.

Regarding `N#CC1(NC(=O)c2ccc3c([N+](=O)[O-])ccc(O)c3n2)CC1`, the inhibition in assay [1], in assay [2] and in assay [3] was below 20% throughout.

In the case of `CN(CC#N)C(=O)c1ccc2c([N+](=O)[O-])cc([N+](=O)[O-])c(O)c2n1`, the inhibition in assay [1], in assay [2] and in assay [3] was below 20% in each case.

Turning to `N#CCN(Cc1ccccc1)C(=O)c1ccc2cccc(O)c2n1`, the inhibition in assay [1], in assay [2] and in assay [3] was below 20% throughout.

For `Cc1cc(C)c2cccnc2c1O`, the inhibition in assay [1], in assay [2] and in assay [3] was below 20% each time.

Take `CN(C)Cc1ccc2c(Cl)cc(Cl)c(O)c2n1`: the inhibition in assay [1] was 69%; in assay [2], below 20%; in assay [3] it was below 20%.

Consider `N#Cc1ccc2ccc([N+](=O)[O-])c(O)c2n1`, for which the inhibition in assay [1], in assay [2] and in assay [3] was below 20% each time.

As to `CN(CC#N)C(=O)c1ccc2c([N+](=O)[O-])ccc(O)c2n1`, the inhibition in assay [1], in assay [2] and in assay [3] was below 20% each time.

`N#CCNC(=O)c1ccc2cccc(O)c2n1`: the inhibition in assay [1], in assay [2] and in assay [3] was below 20% in each case.

On to `CC(=O)Nc1ccc([N+](=O)[O-])c2cccnc12`, for which the inhibition in assay [1], in assay [2] and in assay [3] was below 20% each time.

Regarding `Cc1ccc2cccc(O)c2n1`, the inhibition in assay [1], in assay [2] and in assay [3] was below 20% in each case.

`Oc1ccc(Cl)c2cccnc12`: the inhibition in assay [1] was 60%; in assay [2], below 20%; in assay [3] it was below 20%.

Consider `O=S(=O)(O)c1ccc(O)c2ccccc12`, for which the inhibition in assay [1], in assay [2] and in assay [3] was below 20% each time.

Consider `Oc1ccc(C(F)(F)F)c2cccnc12`, for which the inhibition in assay [1] is below 20%; in assay [2], 13%; in assay [3], below 20%.

Turning to `N#CCNC(=O)c1ccc2c([N+](=O)[O-])ccc(O)c2n1`, the inhibition in assay [1], in assay [2] and in assay [3] was below 20% in each case.

Turning to `Oc1ccc(F)c2cccnc12`, the inhibition in assay [1], in assay [2] and in assay [3] was below 20% each time.
